Measured values: patent US11452717B2, “Small molecule activators of nicotinamide phosphoribosyltransferase (NAMPT) and uses thereof” (Sanford Burnham Prebys Medical Discovery Institute, priority 2017, dated 2022)

Molecular target: NAMPT enzyme (Homo sapiens (Human), UniProt P43490)
Assay: Enzyme Assay and NMN Detection (NAMPT reaction, fluorescence detection of NMN)
Type: biochemical
Settings: Table B-1; NAMPT activation, NMN formation
Outline: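 NMN formed was read at ex380/em460 after acetophenone/KOH derivatization and formic acid addition, using a same-day calibration curve. Final conditions: NAMPT 16 nM, nicotinamide 5 uM, PRPP 6.25 uM, ATP 120 uM, pyrophosphatase 0.04 U/ml, pH 7.5 HEPES buffer with MgCl2 and TCEP, 2 h at room temperature.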

Sequence of NAMPT enzyme (P43490 whole entry, species assumed): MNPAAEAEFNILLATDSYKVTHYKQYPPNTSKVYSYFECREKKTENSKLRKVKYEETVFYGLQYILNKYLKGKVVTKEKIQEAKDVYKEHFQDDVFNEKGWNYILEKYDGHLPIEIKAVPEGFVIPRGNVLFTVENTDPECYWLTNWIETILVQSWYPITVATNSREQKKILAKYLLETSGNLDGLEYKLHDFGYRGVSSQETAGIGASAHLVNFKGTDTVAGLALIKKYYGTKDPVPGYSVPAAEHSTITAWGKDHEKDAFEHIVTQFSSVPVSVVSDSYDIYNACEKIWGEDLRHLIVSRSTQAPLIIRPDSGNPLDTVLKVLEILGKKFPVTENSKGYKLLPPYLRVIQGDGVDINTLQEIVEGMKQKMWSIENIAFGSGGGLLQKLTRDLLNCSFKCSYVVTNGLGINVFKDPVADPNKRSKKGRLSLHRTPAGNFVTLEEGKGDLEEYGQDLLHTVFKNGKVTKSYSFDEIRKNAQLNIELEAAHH

| Compound | EC50 |
| --- | --- |
| O=C(NCc1cn[nH]c1)Nc1ccc(S(=O)(=O)c2ccc(Cl)cc2)cc1 [1-[4-(4-Chloro-benzenesulfonyl)-phenyl]-3-(1H-pyrazol-4-ylmethyl)-urea] | < 100 nM |
| COc1ccc(S(=O)(=O)c2ccc(NC(=O)NCc3cn[nH]c3)cc2)cc1 [1-[4-(4-Methoxy-benzenesulfonyl)-phenyl]-3-(1H-pyrazol-4-ylmethyl)-urea] | < 100 nM |
| O=C(NCc1cn[nH]c1)Nc1ccc(S(=O)(=O)N2CC3CCC(C2)O3)cc1 [1-[4-(8-Oxa-3-aza-bicyclo[3.2.1]octane-3-sulfonyl)-phenyl]-3-(1H-pyrazol-4-ylmethyl)-urea] | 100 to 2000 nM |

Same assay, conditions: Table B-2; NAMPT activation, NMN formation

| Compound | EC50 |
| --- | --- |
| O=C(NCc1ccncc1)Nc1ccc(S(=O)(=O)c2ccc(Cl)cc2)cc1 [1-[4-(4-Chloro-benzenesulfonyl)-phenyl]-3-pyridin-4-ylmethyl-urea] | 100 to 2000 nM |
| COc1ccc(S(=O)(=O)c2ccc(NC(=O)NCc3ccncc3)cc2)cc1 [1-[4-(4-Methoxy-benzenesulfonyl)-phenyl]-3-pyridin-4-ylmethyl-urea] | 100 to 2000 nM |
| CN1CCN(S(=O)(=O)c2ccc(NC(=O)NCc3ccncc3)cc2)CC1 [1-[4-(4-Methyl-piperazine-1-sulfonyl)-phenyl]-3-pyridin-4-ylmethyl-urea] | 100 to 2000 nM |
| O=C(NCc1ccncc1)Nc1ccc(S(=O)(=O)N2CCc3cccc(Cl)c3C2)cc1 [1-[4-(8-Chloro-3,4-dihydro-1H-isoquinoline-2-sulfonyl)-phenyl]-3-pyridin-4-ylmethyl-urea] | < 100 nM |
| O=C(NCc1ccncc1)Nc1ccc(S(=O)(=O)N2CCc3cccc(F)c3C2)cc1 [1-[4-(8-Fluoro-3,4-dihydro-1H-isoquinoline-2-sulfonyl)-phenyl]-3-pyridin-4-ylmethyl-urea] | < 100 nM |
| Cc1cccc2c1CN(S(=O)(=O)c1ccc(NC(=O)NCc3ccncc3)cc1)CC2 [1-[4-(8-Methyl-3,4-dihydro-1H-isoquinoline-2-sulfonyl)-phenyl]-3-pyridin-4-ylmethyl-urea] | < 100 nM |

Same assay, conditions: Table B-3; NAMPT activation, NMN formation

| Compound | EC50 |
| --- | --- |
| O=C(NCc1ccccn1)Nc1ccc(S(=O)(=O)N2CC3CCC(C2)O3)cc1 [1-[4-(8-Oxa-3-aza-bicyclo[3.2.1]octane-3-sulfonyl)-phenyl]-3-pyridin-2-ylmethyl-urea] | > 20000 nM |

Same assay, conditions: Table B-4; NAMPT activation, NMN formation

| Compound | EC50 |
| --- | --- |
| COc1cccc(-c2ccccc2S(=O)(=O)c2ccc(NC(=O)NCc3cn[nH]c3)cc2)c1 [1-[4-(3′-Methoxy-biphenyl-2-sulfonyl)-phenyl]-3-(1H-pyrazol-4-ylmethyl)-urea] | 2000 to 5000 nM |
| Cc1cccc(-c2ccccc2S(=O)(=O)c2ccc(NC(=O)NCc3cn[nH]c3)cc2)c1 [1-[4-(3′-Methyl-biphenyl-2-sulfonyl)-phenyl]-3-(1H-pyrazol-4-ylmethyl)-urea] | 100 to 2000 nM |
| N#Cc1ccc(S(=O)(=O)c2ccc(NC(=O)NCc3cn[nH]c3)cc2)cc1 [1-[4-(4-Cyano-benzenesulfonyl)-phenyl]-3-(1H-pyrazol-4-ylmethyl)-urea] | 100 to 2000 nM |
| O=C(NCc1cn[nH]c1)Nc1ccc(S(=O)(=O)c2ccccc2-c2ccc(F)cc2)cc1 [1-[4-(4′-Fluoro-biphenyl-2-sulfonyl)-phenyl]-3-(1H-pyrazol-4-ylmethyl)-urea] | 100 to 2000 nM |
| COc1ccc(-c2ccccc2S(=O)(=O)c2ccc(NC(=O)NCc3cn[nH]c3)cc2)cc1 [1-[4-(4′-Methoxy-biphenyl-2-sulfonyl)-phenyl]-3-(1H-pyrazol-4-ylmethyl)-urea] | 5000 to 20000 nM |
| Cc1ccc(-c2ccccc2S(=O)(=O)c2ccc(NC(=O)NCc3cn[nH]c3)cc2)cc1 [1-[4-(4′-Methyl-biphenyl-2-sulfonyl)-phenyl]-3-(1H-pyrazol-4-ylmethyl)-urea] | 5000 to 20000 nM |
| O=C(NCc1cn[nH]c1)Nc1ccc(S(=O)(=O)c2ccc(Cl)cn2)cc1 [1-[4-(5-Chloro-pyridine-2-sulfonyl)-phenyl]-3-(1H-pyrazol-4-ylmethyl)-urea] | 100 to 2000 nM |
| Cn1nc(-c2ccc(NC(=O)NCc3cn[nH]c3)cc2)c2cc(F)ccc21 [1-[4-(5-Fluoro-1-methyl-1H-indazol-3-yl)-phenyl]-3-(1H-pyrazol-4-ylmethyl)-urea] | 100 to 2000 nM |
| COc1ccc2c(c1)c(-c1ccc(NC(=O)NCc3cn[nH]c3)cc1)nn2C [1-[4-(5-Methoxy-1-methyl-1H-indazol-3-yl)-phenyl]-3-(1H-pyrazol-4-ylmethyl)-urea] | 100 to 2000 nM |
| Cc1ccc(S(=O)(=O)c2ccc(NC(=O)NCc3cn[nH]c3)cc2)nc1 [1-[4-(5-Methyl-pyridine-2-sulfonyl)-phenyl]-3-(1H-pyrazol-4-ylmethyl)-urea] | 100 to 2000 nM |
| Cc1ccc(S(=O)(=O)c2ccc(NC(=O)NCc3cn[nH]c3)cc2)cn1 [1-[4-(6-Methyl-pyridine-3-sulfonyl)-phenyl]-3-(1H-pyrazol-4-ylmethyl)-urea] | 100 to 2000 nM |

Same assay, conditions: Table B-5; NAMPT activation, NMN formation

| Compound | EC50 |
| --- | --- |
| N#Cc1ccc(S(=O)(=O)c2ccc(NC(=O)NCc3cnco3)cc2)cc1 [1-[4-(4-Cyano-benzenesulfonyl)-phenyl]-3-oxazol-5-ylmethyl-urea] | 100 to 2000 nM |
| COc1ccc(S(=O)(=O)c2ccc(NC(=O)NCc3cnco3)cc2)cc1 [1-[4-(4-Methoxy-benzenesulfonyl)-phenyl]-3-oxazol-5-ylmethyl-urea] | 100 to 2000 nM |
| O=C(NCc1cnco1)Nc1ccc(S(=O)(=O)c2ccc(Cl)cn2)cc1 [1-[4-(5-Chloro-pyridine-2-sulfonyl)-phenyl]-3-oxazol-5-ylmethyl-urea] | 2000 to 5000 nM |
| Cn1nc(-c2ccc(NC(=O)NCc3cnco3)cc2)c2cc(F)ccc21 [1-[4-(5-Fluoro-1-methyl-1H-indazol-3-yl)-phenyl]-3-oxazol-5-ylmethyl-urea] | 2000 to 5000 nM |
| COc1ccc2c(c1)c(-c1ccc(NC(=O)NCc3cnco3)cc1)nn2C [1-[4-(5-Methoxy-1-methyl-1H-indazol-3-yl)-phenyl]-3-oxazol-5-ylmethyl-urea] | > 20000 nM |
| O=C(NCc1cnco1)Nc1ccc(S(=O)(=O)c2ccc(Cl)nc2)cc1 [1-[4-(6-Chloro-pyridine-3-sulfonyl)-phenyl]-3-oxazol-5-ylmethyl-urea] | 2000 to 5000 nM |
| O=C(NCc1cnco1)Nc1ccc(S(=O)(=O)c2ccc(O)nc2)cc1 [1-[4-(6-Hydroxy-pyridine-3-sulfonyl)-phenyl]-3-oxazol-5-ylmethyl-urea] | 100 to 2000 nM |
| COc1ccc(S(=O)(=O)c2ccc(NC(=O)NCc3cnco3)cc2)cn1 [1-[4-(6-Methoxy-pyridine-3-sulfonyl)-phenyl]-3-oxazol-5-ylmethyl-urea] | 100 to 2000 nM |
| Cc1ccc(S(=O)(=O)c2ccc(NC(=O)NCc3cnco3)cc2)cn1 [1-[4-(6-Methyl-pyridine-3-sulfonyl)-phenyl]-3-oxazol-5-ylmethyl-urea] | 100 to 2000 nM |

Same assay, conditions: Table B-6; NAMPT activation, NMN formation

| Compound | EC50 |
| --- | --- |
| O=C(NCc1ccncc1)Nc1ccc(S(=O)(=O)c2ccccc2-c2cccc(F)c2)cc1 [1-[4-(3′-Fluoro-biphenyl-2-sulfonyl)-phenyl]-3-pyridin-4-ylmethyl-urea] | < 100 nM |
| COc1cccc(-c2ccccc2S(=O)(=O)c2ccc(NC(=O)NCc3ccncc3)cc2)c1 [1-[4-(3′-Methoxy-biphenyl-2-sulfonyl)-phenyl]-3-pyridin-4-ylmethyl-urea] | 100 to 2000 nM |
| Cc1cccc(-c2ccccc2S(=O)(=O)c2ccc(NC(=O)NCc3ccncc3)cc2)c1 [1-[4-(3′-Methyl-biphenyl-2-sulfonyl)-phenyl]-3-pyridin-4-ylmethyl-urea] | 100 to 2000 nM |
| N#Cc1ccc(S(=O)(=O)c2ccc(NC(=O)NCc3ccncc3)cc2)cc1 [1-[4-(4-Cyano-benzenesulfonyl)-phenyl]-3-pyridin-4-ylmethyl-urea] | 100 to 2000 nM |
| O=C(NCc1ccncc1)Nc1ccc(S(=O)(=O)c2ccccc2-c2ccc(Cl)cc2)cc1 [1-[4-(4′-Chloro-biphenyl-2-sulfonyl)-phenyl]-3-pyridin-4-ylmethyl-urea] | 5000 to 20000 nM |
| O=C(NCc1ccncc1)Nc1ccc(S(=O)(=O)c2ccccc2-c2ccc(F)cc2)cc1 [1-[4-(4′-Fluoro-biphenyl-2-sulfonyl)-phenyl]-3-pyridin-4-ylmethyl-urea] | 100 to 2000 nM |
| COc1ccc(-c2ccccc2S(=O)(=O)c2ccc(NC(=O)NCc3ccncc3)cc2)cc1 [1-[4-(4′-Methoxy-biphenyl-2-sulfonyl)-phenyl]-3-pyridin-4-ylmethyl-urea] | 5000 to 20000 nM |
| Cc1ccc(-c2ccccc2S(=O)(=O)c2ccc(NC(=O)NCc3ccncc3)cc2)cc1 [1-[4-(4′-Methyl-biphenyl-2-sulfonyl)-phenyl]-3-pyridin-4-ylmethyl-urea] | 2000 to 5000 nM |
| O=C(NCc1ccncc1)Nc1ccc(S(=O)(=O)c2ccc(Cl)cn2)cc1 [1-[4-(5-Chloro-pyridine-2-sulfonyl)-phenyl]-3-pyridin-4-ylmethyl-urea] | 100 to 2000 nM |
| Cn1nc(-c2ccc(NC(=O)NCc3ccncc3)cc2)c2cc(F)ccc21 [1-[4-(5-Fluoro-1-methyl-1H-indazol-3-yl)-phenyl]-3-pyridin-4-ylmethyl-urea] | 100 to 2000 nM |
| COc1ccc2c(c1)c(-c1ccc(NC(=O)NCc3ccncc3)cc1)nn2C [1-[4-(5-Methoxy-1-methyl-1H-indazol-3-yl)-phenyl]-3-pyridin-4-ylmethyl-urea] | 100 to 2000 nM |
| O=C(NCc1ccncc1)Nc1ccc(S(=O)(=O)c2ccc(Cl)nc2)cc1 [1-[4-(6-Chloro-pyridine-3-sulfonyl)-phenyl]-3-pyridin-4-ylmethyl-urea] | 100 to 2000 nM |
| O=C(NCc1ccncc1)Nc1ccc(S(=O)(=O)c2ccc(O)nc2)cc1 [1-[4-(6-Hydroxy-pyridine-3-sulfonyl)-phenyl]-3-pyridin-4-ylmethyl-urea] | 100 to 2000 nM |
| COc1ccc(S(=O)(=O)c2ccc(NC(=O)NCc3ccncc3)cc2)cn1 [1-[4-(6-Methoxy-pyridine-3-sulfonyl)-phenyl]-3-pyridin-4-ylmethyl-urea] | 100 to 2000 nM |
| Cc1ccc(S(=O)(=O)c2ccc(NC(=O)NCc3ccncc3)cc2)cn1 [1-[4-(6-Methyl-pyridine-3-sulfonyl)-phenyl]-3-pyridin-4-ylmethyl-urea] | 100 to 2000 nM |
